According to article PMC3740399, “Carfilzomib in multiple myeloma patients with renal impairment: pharmacokinetics and safety” (Leukemia, 2013):

How the values were obtained:
[1] = Urinary excretion of carfilzomib (LC MS/MS); assay type: in vivo, human
Procedure: Blood for plasma PK analysis was collected on days 1 and 15 of Cycle 1, and on day 15 of Cycle 2, before dosing (t=0), at the end of dosing, and at 5, 15 and 30 min and 1, 1.5, 2, 4, 6 and 24 h after dosing; urine samples were collected cumulatively over 0–5 h and 5–24 h on days 1 and 15 of Cycle 1 following administration of carfilzomib to determine carfilzomib concentrations. Carfilzomib concentrations were determined using validated liquid chromatography tandem mass spectrometry (LC MS/MS) methods with a calibration range of 0.300–300 ng/ml for plasma samples and 4.0–2000 ng/ml for urine samples. Plasma concentration of carfilzomib versus time was plotted on days 1 and 15 in Cycle 1, and PK parameters were calculated using a non-compartmental constant infusion method using WinNonlin (Pharsight, Sunnyvale, CA, USA). To determine whether renal impairment affected the PK of carfilzomib, the relationship between renal function status and relevant PK parameters was evaluated. Statistical comparison (analysis of variance) of the ln-transformed dose-adjusted PK parameters was also performed between patients with normal renal function and each group of patients with renal impairment. For these parameters, 90% confidence intervals (CI) were calculated for the ratios between least squares of the mean (LSM) for each group versus the normal renal function group (Group 1). […]

[2] = Safety: treatment-emergent adverse events (CTCAE Version 3.0); assay type: in vivo, human; conditions: for Anemia, Grades 3/4 / Decreased hemoglobin, Grades 3/4 / Dyspnea, Grades 3/4 / Fatigue, Grades 3/4 / Hypokalemia, Grades 3/4 / Lymphopenia, Grades 3/4 / Pain, Grades 3/4 / Pneumonia, Grades 3/4 / Thrombocytopenia, Grades 3/4: number of patients
Procedure: (§1) All patients who received at least one dose of carfilzomib were included in the safety population. Incidence, severity and duration of AEs, including all serious AEs and those considered to be treatment related, and shifts to or from abnormal relative to baseline in key laboratory parameters were categorized according to the National Cancer Institute's Common Terminology Criteria for Adverse Events (CTCAE) Version 3.0.[16] […] ECGs were performed in most patients to satisfy regulatory requirements, but were not required by the study protocol.

[3] = design: species or system human; conditions: in vivo
Procedure: as §1

[4] = in vivo
Procedure: Carfilzomib was administered by IV infusion over 2–10 min on days 1, 2, 8, 9, 15 and 16 of a 28-day cycle for up to 12 cycles. The dose of carfilzomib in Cycle 1 was 15 mg/m^2. If this dose was tolerated, it was increased to 20 mg/m^2 at Cycle 2, and to 27 mg/m^2 at Cycle 3 and for all subsequent cycles as tolerated.
Blood for plasma PK analysis was collected on days 1 and 15 of Cycle 1, and on day 15 of Cycle 2, before dosing (t=0), at the end of dosing, and at 5, 15 and 30 min and 1, 1.5, 2, 4, 6 and 24 h after dosing; urine samples were collected cumulatively over 0–5 h and 5–24 h on days 1 and 15 of Cycle 1 following administration of carfilzomib to determine carfilzomib concentrations. Carfilzomib concentrations were determined using validated liquid chromatography tandem mass spectrometry (LC MS/MS) methods with a calibration range of 0.300–300 ng/ml for plasma samples and 4.0–2000 ng/ml for urine samples. Plasma concentration of carfilzomib versus time was plotted on days 1 and 15 in Cycle 1, and PK parameters were calculated using a non-compartmental constant infusion method using WinNonlin (Pharsight, Sunnyvale, CA, USA). To determine whether renal impairment affected the PK of carfilzomib, the relationship between renal function status and relevant PK parameters was evaluated. Statistical comparison (analysis of variance) of the ln-transformed dose-adjusted PK parameters was also performed between patients with normal renal function and each group of patients with renal impairment. For these parameters, 90% confidence intervals (CI) were calculated for the ratios between least squares of the mean (LSM) for each group versus the normal renal function group (Group 1). […] The primary PK parameters—apparent plasma clearance, dose-normalized AUCinf (total exposure), and the dose-normalized Cmax on day 1 and day 15 of Cycle 1—were also estimated as a function of CrCl by linear regression using a mixed-effects model (Y=β0+β1 × CrCl+β2 × Age+β3 × weight, where Y=PK parameter, β0 = intercept, and β1, β2 and β3 are slope parameters associated with CrCl, age and weight, respectively).

[5] = Group 1 (normal renal function), n=12
[6] = Group 2 (mild impairment), n=12
[7] = Group 3 (moderate impairment), n=10
[8] = Group 4 (severe impairment), n=8
[9] = Group 5 (chronic dialysis), n=8

With `CC(C)C[C@H](NC(=O)[C@H](CCc1ccccc1)NC(=O)CN1CCOCC1)C(=O)N[C@@H](Cc1ccccc1)C(=O)N[C@@H](CC(C)C)C(=O)[C@@]1(C)CO1` [carfilzomib] the “total amount of carfilzomib recovered in the urine, of the administered dose” value ([1]; all groups, Days 1 and 15 of Cycle 1, within 24 h post-dosing) was “less than 1%”, the “mean total concentration of carfilzomib in urine” value ([1]; group with normal renal function, day 1 of Cycle 1, 15 mg/m^2 IV, post-dose urine collection, LC MS/MS) was 0.157 mg and the “Anemia, Grades 3/4” value [2, 5] was 2. The “Decreased hemoglobin, Grades 3/4” value [2, 5] was 1, the “Dyspnea, Grades 3/4” value [2, 5] was 0 and the “Fatigue, Grades 3/4” value [2, 5] was 2. The “Hypokalemia, Grades 3/4” value [2, 5] was 1, the “Lymphopenia, Grades 3/4” value [2, 5] was 2 and the “Pain, Grades 3/4” value [2, 5] was 0. For the same molecule, the “Pneumonia, Grades 3/4” value [2, 5] was 1, the “Thrombocytopenia, Grades 3/4” value [2, 5] was 1 and the “Anemia, Grades 3/4” value [2, 6] was 4. The “Decreased hemoglobin, Grades 3/4” value [2, 6] was 0, the “Dyspnea, Grades 3/4” value [2, 6] was 0 and the “Fatigue, Grades 3/4” value [2, 6] was 1. For the same molecule, the “Hypokalemia, Grades 3/4” value [2, 6] was 1, the “Lymphopenia, Grades 3/4” value [2, 6] was 3 and the “Pain, Grades 3/4” value [2, 6] was 2. For the same molecule, the “Pneumonia, Grades 3/4” value [2, 6] was 1, the “Thrombocytopenia, Grades 3/4” value [2, 6] was 5 and the “Anemia, Grades 3/4” value [2, 7] was 5. The “Decreased hemoglobin, Grades 3/4” value [2, 7] was 1, the “Dyspnea, Grades 3/4” value [2, 7] was 2 and the “Fatigue, Grades 3/4” value [2, 7] was 2. The “Hypokalemia, Grades 3/4” value [2, 7] was 0, the “Lymphopenia, Grades 3/4” value [2, 7] was 1 and the “Pain, Grades 3/4” value [2, 7] was 3. The “Pneumonia, Grades 3/4” value [2, 7] was 3, the “Thrombocytopenia, Grades 3/4” value [2, 7] was 3 and the “Anemia, Grades 3/4” value [2, 8] was 2. For the same molecule, the “Decreased hemoglobin, Grades 3/4” value [2, 8] was 1, the “Dyspnea, Grades 3/4” value [2, 8] was 1 and the “Fatigue, Grades 3/4” value [2, 8] was 1. The “Hypokalemia, Grades 3/4” value [2, 8] was 1, the “Lymphopenia, Grades 3/4” value [2, 8] was 2 and the “Pain, Grades 3/4” value [2, 8] was 0. The “Pneumonia, Grades 3/4” value [2, 8] was 1, the “Thrombocytopenia, Grades 3/4” value [2, 8] was 1 and the “Anemia, Grades 3/4” value [2, 9] was 1. The “Decreased hemoglobin, Grades 3/4” value [2, 9] was 1, the “Dyspnea, Grades 3/4” value [2, 9] was 1 and the “Fatigue, Grades 3/4” value [2, 9] was 1. The “Hypokalemia, Grades 3/4” value [2, 9] was 1, the “Lymphopenia, Grades 3/4” value [2, 9] was 1 and the “Pain, Grades 3/4” value [2, 9] was 0. The “Pneumonia, Grades 3/4” value [2, 9] was 0, the “Thrombocytopenia, Grades 3/4” value [2, 9] was 0 and the “Grade 3/4 anemia, incidence” value ([2]; all patients, n=50) was 28.0%. For the same molecule, the “Grade 3/4 fatigue, incidence” value ([2]; all patients, n=50) was 14.0%, the “Grade 3/4 lymphopenia, incidence” value ([2]; all patients, n=50) was 18.0% and the “Grade 3/4 thrombocytopenia, incidence” value ([2]; all patients, n=50) was 20.0%. The “AEs leading to dose reduction” value ([2]; in vivo) was 18.0%, the “Clinical congestive heart failure” value ([2]; in vivo) was “four” and the “Grade 3 neuropathy during the study” value ([2]; in vivo) was 2.0%. For the same molecule, the “Serious AE acute renal failure” value ([2]; in vivo) was 6.0%, the “Serious AE congestive heart failure” value ([2]; in vivo) was 6.0% and the “Serious AE dehydration” value ([2]; in vivo) was 6.0%. For the same molecule, the “Serious AE pneumonia” value ([2]; in vivo) was 16.0%, the “Serious AEs, patients” value ([2]; in vivo) was 66.0% and the “anemia of any grade, incidence” value ([2]; in vivo) was 50.0%. For the same molecule, the “diarrhea of any grade, incidence” value ([2]; in vivo) was 36.0%, the “elevations in serum creatinine from Grade ⩽2 at baseline to Grade 3 at any point after beginning treatment” value ([2]; in vivo) was “Five” and the “fatigue of any grade, incidence” value ([2]; in vivo) was 56.0%. For the same molecule, the “incidence of treatment-emergent or worsening neuropathy of any grade” value ([2]; in vivo) was 12.0%, the “nausea of any grade, incidence” value ([2]; in vivo) was 36.0% and the “patients with at least one treatment-emergent AE” value ([2]; in vivo) was 94.0%. For the same molecule, the “worsening of renal function to Grade 3” value ([2]; in vivo) was 12.0%, the “Grade 3/4 infection: respiratory tract infection” value ([2]; n=2 of 50) was 4.0% and the “Grade 3/4 infection: sepsis” value ([2]; n=2 of 50) was 4.0%. For the same molecule, the “Grade 3/4 infection: influenza” value ([2]; n=3 of 50) was 6.0%, the “Grade 3/4 infection: bacterial pneumonia” value ([2]; n=6 of 50) was 12.0% and the “deaths on study or within 30 days of discontinuation of treatment” value ([2]; n=50, all attributed primarily to disease progression) was “five”. The “Serious AE influenza” value ([2]; three patients of 50) was 6.0%, the “ECG effects on heart rate, atrioventricular conduction, cardiac depolarization (QT, PR, QRS intervals)” value [3] was “no clinically relevant effects” and the “Slope (95% CI) of linear regression of AUCinf as a function of creatinine clearance” value [4] was 0.012 (−0.030, 0.054). For the same molecule, the “Slope (95% CI) of linear regression of AUClast (h·ng/ml) as a function of creatinine clearance” value [4] was 0.008 (−0.031, 0.048), the “Slope (95% CI) of linear regression of Cmax (ng/ml) as a function of creatinine clearance” value [4] was 0.225 (−0.242, 0.692) and the “Slope (95% CI) of linear regression of carfilzomib clearance (l/h) as a function of creatinine clearance” value [4] was −0.607 (−2.129, 0.914). The CL ([4]; iv) was 110 L/h and the “median terminal half life (t1/2)” value ([4]; iv) was “less than 60 min”.
